Measurements: patent US8809369B2, “Tetrahydroquinoline derivatives” (Hoffmann-La Roche Inc., priority 2011, dated 2014)

Assays:
[1] = test system: ACC (acetyl-CoA carboxylase); experiment: p-ACC expression level in L6 cell line by Western blot; assay type: cell-based; details: Rattus norvegicus, L6 cells, 2 hours compound treatment, read-out: Activity AC1.3 (ACCp)
Experimental: (§1) Evaluation of p-AMPK and p-ACC expression level in L6 cell line by Western-Blot
(§2) This method evaluates the changes of AMP-activated protein kinase (AMPK) and ACC (acetyl-CoA carboxylase) activity by small molecular modulators through detecting the level of p-AMPK and p-ACC proteins in L6 cells using Western blot.
(§3) L6 cells are maintained in DMEM medium supplemented with 10% FBS in 10-cm dishes. Prior to compounds treatment, L6 cells are seeded in 12-well-plates at concentration of 3×10^4 cells per well. After 24 hours of incubation in 12-well plates, L6 cells are differentiated by replacing the 10% FBS-DMEM medium with 2% FBS-DMEM. Differentiation usually takes 5 days, during which the culture medium is changed every 2 days.
(§4) The compound concentrations typically range from 32 μM to 0.5 μM with 2-fold dilution in 2 ml DMEM and 7 doses. The final DMSO concentration is 0.4%. Berberine is used as a positive control at concentration of 16 μM. Before compound treatment, starve L6 cells for 2 hours by replacing the medium with DMEM, and then gently aspirate the media from each well. Add the compounds into the plates and incubate at 37 degree 5% CO2 for 2 hours.
(§5) Prepare lysis buffer (RIPA buffer with protease-inhibitors and phosphorate-inhibitors) and place it on ice. After two hour's compound treatment, aspirate the medium from 12-well plates, add 70 ul lysis buffer to each well and keep the plates on ice for 5 min. Then scrape the cell lysate off the plates and transfer it to 1.5 ml eppendorf tubes. Keep the tube on ice for more 10 min, centrifugate the lysate at 13000 rpm, 4 degrees for 15 min and transfer the supernatant to clean tubes.
(§6) Determine protein concentration for each sample using Quickstart Bradford protein quantitation kit. Mix 20 ug protein sample with 4 times loading buffer, heat them at 100° C. for 5 min, store the sample in −80° C. or perform Western blot assay directly. For Western blot assay, load 20 ug samples and 10 ul Pre-stained Protein Maker into 4-12% SDS-PAGE gradient gel. Run the samples at 100 V in the stacking gel and at 120 V in resolving gel until the Bromophenol dye reaches the bottom. Transfer the electrophoresed proteins to a PVDF membrane using Bio-Rad's Transblot for 120 min at 300 mA. Following the completion of transfer, the membrane is blocked with 5% non-fat milk for 2 hours at room temperature before incubated with primary antibody (p-AMPK and p-ACC) at 4° C. overnight. On the next day wash the membrane twice with TBST, add secondary antibody and incubate for 1 hour at room temperature. Wash the membrane twice with TBST. Develop p-AMPK and p-ACC protein expression level on the film in dark room with Amersham ECL plus kit. The bands of each sample are quantitated by Bio-Rad system, The AC1.3 value is analyzed using Prism 5.0.

[2] = test system: AMP-activated protein kinase (AMPK); experiment: p-AMPK expression level in L6 cell line by Western blot; assay type: cell-based; details: L6 cells, 2 hours compound treatment
Experimental: as §1, §2, §3, §4, §5, §6

| Compound | EC (1.3-fold) [1] [µM] | Activity AC1.3 (AMPKp) [2] [µM] |
| --- | --- | --- |
| CC1(C)CC(c2cccc(N3CCOCC3)c2)Nc2ccc(C(=O)NS(=O)(=O)C3CC3)cc21 (centres unmarked) [Example 1, Cyclopropanesulfonic acid [4,4-dimethyl-2-(3-morpholin-4-yl-phenyl)-1,2,3,4-tetrahydro-quinoline-6-carbonyl]-amide] | 1.4 | – |
| CC1(C)CC(c2cc(F)cc(N3CCOCC3)c2)Nc2ccc(C(=O)NS(=O)(=O)C3CC3)cc21 (centres unmarked) [Example 6, Cyclopropanesulfonic acid [2-(3-fluoro-5-morpholin-4-yl-phenyl)-4,4-dimethyl-1,2,3,4-tetrahydro-quinoline-6-carbonyl]-amide] | 3.5 | – |
| CC1(c2ccccc2)CC(c2ccc(F)c(Cl)c2)Nc2ccc(C(=O)NS(C)(=O)=O)cc21 (centres unmarked) [Example 7, N-[2-(3-chloro-4-fluoro-phenyl)-4-methyl-4-phenyl-1,2,3,4-tetrahydro-quinoline-6-carbonyl]-methanesulfonamide] | < 16 | – |
| CCCS(=O)(=O)NC(=O)c1ccc2c(c1)C(C)(C)CC(c1ccc(F)c(Cl)c1)N2 (centres unmarked) [Example 8, Propane-1-sulfonic acid [2-(3-chloro-4-fluoro-phenyl)-4,4-dimethyl-1,2,3,4-tetrahydro-quinoline-6-carbonyl]-amide] | < 32 | – |
| CC(C)S(=O)(=O)NC(=O)c1ccc2c(c1)C(C)(C)CC(c1cccc(N3CCOCC3)c1)N2 (centres unmarked) [Example 9, Propane-2-sulfonic acid [4,4-dimethyl-2-(3-morpholin-4-yl-phenyl)-1,2,3,4-tetrahydro-quinoline-6-carbonyl]-amide] | 4.5 | – |
| CC1(C)CC(c2cccc(N3CCOCC3)c2)Nc2c(C(=O)NS(C)(=O)=O)cccc21 (centres unmarked) [Example 10, N-[4,4-dimethyl-2-(3-morpholin-4-yl-phenyl)-1,2,3,4-tetrahydro-quinoline-8-carbonyl]-methanesulfonamide] | < 0.2 | – |
| CC1(C)CC(c2cccc(N3CCOCC3)c2)Nc2c(C(=O)NS(=O)(=O)C3CC3)cccc21 (centres unmarked) [Example 11, Cyclopropanesulfonic acid [4,4-dimethyl-2-(3-morpholin-4-yl-phenyl)-1,2,3,4-tetrahydro-quinoline-8-carbonyl]-amide] | 0.3 | – |
| CC(C)NS(=O)(=O)c1ccc2c(c1)C(C)(C)CC(c1cccc(N3CCOCC3)c1)N2 (centres unmarked) [Example 13, 4,4-Dimethyl-2-(3-morpholin-4-yl-phenyl)-1,2,3,4-tetrahydro-quinoline-6-sulfonic acid isopropylamide] | 0.4 | – |
| CC1(C)CC(c2cccc(N3CCNCC3)c2)Nc2ccc(S(=O)(=O)N3CCOCC3)cc21 (centres unmarked) [Example 14, 4,4-Dimethyl-6-(morpholine-4-sulfonyl)-2-(3-piperazin-1-yl-phenyl)-1,2,3,4-tetrahydro-quinoline] | 4.7 | – |
| CC1(C)CC(c2cccc(C(F)(F)F)c2)Nc2ccc(C(=O)NS(C)(=O)=O)cc21 (centres unmarked) [Example 30, N-[4,4-dimethyl-2-(3-trifluoromethyl-phenyl)-1,2,3,4-tetrahydro-quinoline-6-carbonyl]-methanesulfonamide] | 0.002 | – |
| CC1(C)CC(c2cccc(C(F)(F)F)c2)Nc2ccc(C(=O)NS(=O)(=O)C3CC3)cc21 (centres unmarked) [Example 31, Cyclopropanesulfonic acid [4,4-dimethyl-2-(3-trifluoromethyl-phenyl)-1,2,3,4-tetrahydro-quinoline-6-carbonyl]-amide] | 2 | – |
| CC(C)(C)c1ccc(-c2cccc(C3CC(C)(C)c4cc(C(=O)NS(C)(=O)=O)ccc4N3)c2)cc1 (centres unmarked) [Example 39, N-[2-(4′-tert-butyl-biphenyl-3-yl)-4,4-dimethyl-1,2,3,4-tetrahydro-quinoline-6-carbonyl]-methanesulfonamide] | 1.4 | – |
| CC1(C)CC(c2cccc(-c3nnnn3C3CC3)c2)Nc2ccc(C(=O)NS(=O)(=O)C3CC3)cc21 (centres unmarked) [Example 41, Cyclopropanesulfonic acid {2-[3-(1-cyclopropyl-1H-tetrazol-5-yl)-phenyl]-4,4-dimethyl-1,2,3,4-tetrahydro-quinoline-6-carbonyl}-amide] | 1.16 | – |
| CC(C)Oc1ccc(-c2cccc(C3CC(C)(C)c4cc(C(=O)NS(C)(=O)=O)ccc4N3)c2)cc1 (centres unmarked) [Example 45, N-[2-(4′-isopropoxy-biphenyl-3-yl)-4,4-dimethyl-1,2,3,4-tetrahydro-quinoline-6-carbonyl]-methanesulfonamide] | < 8 | – |
| CC(C)Oc1ccc(-c2cccc(C3CC(C)(C)c4cc(C(=O)NS(=O)(=O)C5CC5)ccc4N3)c2)cc1 (centres unmarked) [Example 46, Cyclopropanesulfonic acid [2-(4′-isopropoxy-biphenyl-3-yl)-4,4-dimethyl-1,2,3,4-tetrahydro-quinoline-6-carbonyl]-amide] | < 8 | – |
| CCc1ccc(N2CCOCC2)cc1C1CC(C)(C)c2cc(C(=O)NS(=O)(=O)C3CC3)ccc2N1 (centres unmarked) [Example 47, Cyclopropanesulfonic acid [2-(2-ethyl-5-morpholin-4-yl-phenyl)-4,4-dimethyl-1,2,3,4-tetrahydro-quinoline-6-carbonyl]-amide] | 62.4 | – |
| CC1(C)CC(c2cccc(N3CCOCC3)c2)Nc2cc(C(=O)NS(C)(=O)=O)ccc21 (centres unmarked) [Example 55, N-[4,4-dimethyl-2-(3-morpholin-4-yl-phenyl)-1,2,3,4-tetrahydro-quinoline-7-carbonyl]-methanesulfonamide] | 0.7 | – |
| CC1(C)CC(c2cccc(N3CCN(c4ccccc4F)CC3)c2)Nc2c(C(=O)NS(=O)(=O)C3CC3)cc(F)cc21 (centres unmarked) [Example 60, Cyclopropanesulfonic acid (6-fluoro-2-{3-[4-(2-fluoro-phenyl)-piperazin-1-yl]-phenyl}-4,4-dimethyl-1,2,3,4-tetrahydro-quinoline-8-carbonyl)-amide] | 7.33 | – |
| CC1(C)CC(c2cccc(N3CCOCC3)c2)Nc2c(C(=O)NS(C)(=O)=O)cc(Cl)cc21 (centres unmarked) [Example 62, N-[6-chloro-4,4-dimethyl-2-(3-morpholin-4-yl-phenyl)-1,2,3,4-tetrahydro-quinoline-8-carbonyl]-methanesulfonamide] | 68 | – |
| CC1(C)CC(c2cccc(N3CCOCC3)c2)Nc2c(C(=O)NS(=O)(=O)C3CC3)cc(Cl)cc21 (centres unmarked) [Example 63, Cyclopropanesulfonic acid [6-chloro-4,4-dimethyl-2-(3-morpholin-4-yl-phenyl)-1,2,3,4-tetrahydro-quinoline-8-carbonyl]-amide] | 5.2 | – |
| CC1(C)CC(c2cccc(N3CCOC3=O)c2)Nc2c(C(=O)NS(=O)(=O)C3CC3)cc(Cl)cc21 (centres unmarked) [Example 65, Cyclopropanesulfonic acid {6-chloro-4,4-dimethyl-2-[3-(2-oxo-oxazolidin-3-yl)-phenyl]-1,2,3,4-tetrahydro-quinoline-8-carbonyl}-amide] | 12.8 | – |
| CC1(C)CC(c2cccc(N3CCCC3)c2)Nc2c(C(=O)NS(C)(=O)=O)cc(F)cc21 (centres unmarked) [Example 69, N-[6-fluoro-4,4-dimethyl-2-(3-pyrrolidin-1-yl-phenyl)-1,2,3,4-tetrahydro-quinoline-8-carbonyl]-methanesulfonamide] | 0.1 | – |
| CC1(C)CC(c2cccc(N3CCCC3)c2)Nc2c(C(=O)NS(=O)(=O)C3CC3)cc(F)cc21 (centres unmarked) [Example 70, Cyclopropanesulfonic acid [6-fluoro-4,4-dimethyl-2-(3-pyrrolidin-1-yl-phenyl)-1,2,3,4-tetrahydro-quinoline-8-carbonyl]-amide] | 0.57 | – |
| CC(C)(C)c1ccc(-c2cncc(C3CC(C)(C)c4cc(C(=O)NS(C)(=O)=O)ccc4N3)c2)cc1 (centres unmarked) [Example 73, N-{2-[5-(4-tert-butyl-phenyl)-pyridin-3-yl]-4,4-dimethyl-1,2,3,4-tetrahydro-quinoline-6-carbonyl}-methanesulfonamide] | 0.1 | – |
| CC(C)(Nc1cc(F)cc(C2CC(C)(C)c3cc(S(=O)(=O)NC4CCC4)ccc3N2)c1)C(=O)O (centres unmarked) [Example 86, 2-[3-(6-Cyclobutylsulfamoyl-4,4-dimethyl-1,2,3,4-tetrahydro-quinolin-2-yl)-5-fluoro-phenylamino]-2-methyl-propionic acid] | – | 0.003 |
| CC1(C)CC(c2cc(F)cc(NC3(C(=O)O)CC3)c2)Nc2ccc(S(=O)(=O)NC3CCC3)cc21 (centres unmarked) [Example 87, 1-[3-(6-Cyclobutylsulfamoyl-4,4-dimethyl-1,2,3,4-tetrahydro-quinolin-2-yl)-5-fluoro-phenylamino]-cyclopropanecarboxylic acid] | – | 0.002 |
